# From patent publication US8680159B2, “Bradykinin 1 receptor modulating compounds” (Gruenenthal GmbH, priority 2010, dated 2014)
# Target: T1, human B1R receptor (CHO K1 cells stably transfected with the human B1R gene) (Homo sapiens, UniProt P46663)
# T1 construct: expressed in transfected cells; host or cells: CHO K1 cells (Chinese hamster ovary), stably transfected
# T1 sequence (P46663 1-353): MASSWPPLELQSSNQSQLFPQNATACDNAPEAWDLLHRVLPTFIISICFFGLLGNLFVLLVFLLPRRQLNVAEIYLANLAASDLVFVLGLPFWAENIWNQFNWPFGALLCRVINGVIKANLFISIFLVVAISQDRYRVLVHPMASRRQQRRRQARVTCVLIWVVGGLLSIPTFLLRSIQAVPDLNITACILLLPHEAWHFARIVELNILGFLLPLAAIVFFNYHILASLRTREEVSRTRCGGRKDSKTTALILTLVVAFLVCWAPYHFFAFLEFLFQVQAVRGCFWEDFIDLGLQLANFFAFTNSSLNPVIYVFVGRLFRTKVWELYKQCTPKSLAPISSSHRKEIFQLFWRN
# Test: Functional study on the bradykinin receptor 1 (B1R), Ca2+ fluorescence (Fluo-4) FLIPR/Novostar assay, hB1R cells
# Format: cell-based
# Conditions: CHO-K1, read-out: % Inhibition (h-B1R) at 10 μM
# Procedure, shortened: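 Ca2+ influx (Fluo-4, peak fluorescence, λex 488/λem 540 nm) was measured in CHO K1 lines expressing rat or human B1R. After a 10 μM test-compound pre-addition scoring % activation, cells received EC80 agonist: Des-Arg9-bradykinin for rat, Lys-Des-Arg9-bradykinin for human. Antagonism was expressed as % of maximum inhibition, with IC50 from varied concentrations.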
row,Compound,inhibition at 10 µM [%]
1,"CN(C(=O)c1ccc2c(c1)C(NC(=O)c1cncnc1)CC2)C1CCN(c2ccc3cnccc3c2)CC1 (stereo not shown) [CC_H-130, N-[6-[(1-Isoquinolin-6-yl-piperidin-4-yl)-methyl-carbamoyl]-2,3-dihydro-1H-inden-1-yl]-pyrimidine-5-carboxylic acid amide]",81
2,"Cc1cc(N2CCC(N(C)C(=O)c3ccc4c(c3)C(NC(=O)C(C)(C)c3ccccc3Cl)CC4)CC2)cc(C)n1 (stereo not shown) [CC_H-131, 3-[[2-(2-Chlorophenyl)-2-methyl-propanoyl]amino]-N-[1-(2,6-dimethyl-pyridin-4-yl)-piperidin-4-yl]-N-methyl-2,3-dihydro-1H-indene-5-carboxylic acid amide]",99
3,"CC(C)CC(=O)NC1CCc2ccc(C(=O)NCCC3CCN(c4ccncc4)CC3)cc21 (stereo not shown) [CC_H-132, 3-(3-Methyl-butanoylamino)-N-[2-(1-pyridin-4-yl-piperidin-4-yl)-ethyl]-2,3-dihydro-1H-indene-5-carboxylic acid amide]",99
4,"Cc1cccc(C)c1C(=O)NC1CCc2ccc(C(=O)N(C)C3CCN(c4ccc5cnccc5c4)CC3)cc21 (stereo not shown) [CC_H-133, 3-[(2,6-Dimethyl-benzoyl)amino]-N-(1-isoquinolin-6-yl-piperidin-4-yl)-N-methyl-2,3-dihydro-1H-indene-5-carboxylic acid amide]",90
5,"Cc1cc(N2CCC(N(C)C(=O)c3ccc4c(c3)C(N(C)S(=O)(=O)c3c(Cl)cccc3C(F)(F)F)CC4)CC2)cc(C)n1 (stereo not shown) [CC_H-134, 3-[[[2-Chloro-6-(trifluoromethyl)-phenyl]sulfonyl]-methyl-amino]-N-[1-(2,6-dimethyl-pyridin-4-yl)-piperidin-4-yl]-N-methyl-2,3-dihydro-1H-indene-5-carboxylic acid amide]",100
6,"CC(C)CC(=O)NC1CCCc2ccc(C(=O)N(C)C3CCN(c4ccncc4)CC3)cc21 (stereo not shown) [CC_H-135, N-Methyl-8-(3-methyl-butanoylamino)-N-(1-pyridin-4-yl-piperidin-4-yl)-5,6,7,8-tetrahydro-naphthalene-2-carboxylic acid amide]",100
7,"O=C(NCCC1CCN(c2ccncc2)CC1)c1ccc2c(c1)C(NC(=O)c1c(Cl)cccc1C(F)(F)F)CC2 (stereo not shown) [CC_H-136, 3-[[2-Chloro-6-(trifluoromethyl)-benzoyl]amino]-N-[2-(1-pyridin-4-yl-piperidin-4-yl)-ethyl]-2,3-dihydro-1H-indene-5-carboxylic acid amide]",100
8,"CN(C(=O)c1ccc2c(c1)C(NC(=O)c1c(Cl)cccc1C(F)(F)F)CC2)C1CCN(c2ccncc2)CC1 (stereo not shown) [CC_H-137, 3-[[2-Chloro-6-(trifluoromethyl)-benzoyl]amino]-N-methyl-N-(1-pyridin-4-yl-piperidin-4-yl)-2,3-dihydro-1H-indene-5-carboxylic acid amide]",96
9,"Cc1cccc(C)c1C(=O)NC1CCc2ccc(C(=O)N(C)C3CCN(c4ccncc4)CC3)cc21 (stereo not shown) [CC_H-138, 3-[(2,6-Dimethyl-benzoyl)amino]-N-methyl-N-(1-pyridin-4-yl-piperidin-4-yl)-2,3-dihydro-1H-indene-5-carboxylic acid amide]",98
10,"CN(C(=O)c1ccc2c(c1)C(NC(=O)C(C)(C)c1ccccc1Cl)CC2)C1CCN(c2ccncc2)CC1 (stereo not shown) [CC_H-139, 3-[[2-(2-Chlorophenyl)-2-methyl-propanoyl]amino]-N-methyl-N-(1-pyridin-4-yl-piperidin-4-yl)-2,3-dihydro-1H-indene-5-carboxylic acid amide]",98
11,"CN(C(=O)c1ccc2c(c1)C(NC(=O)C1CCCCC1)CC2)C1CCN(c2ccncc2)CC1 (stereo not shown) [CC_H-140, 3-(Cyclohexanecarbonylamino)-N-methyl-N-(1-pyridin-4-yl-piperidin-4-yl)-2,3-dihydro-1H-indene-5-carboxylic acid amide]",100
12,"CN(C(=O)c1ccc2c(c1)C(NS(=O)(=O)Cc1ccccc1C(F)(F)F)CC2)C1CCN(c2ccncc2)CC1 (stereo not shown) [CC_H-141, N-Methyl-N-(1-pyridin-4-yl-piperidin-4-yl)-3-[[[2-(trifluoromethyl)-phenyl]-methylsulfonyl]amino]-2,3-dihydro-1H-indene-5-carboxylic acid amide]",100
13,"Cc1cc(N2CCC(N(C)C(=O)c3ccc4c(c3)C(NC(=O)N(C)c3ccccc3Cl)CC4)CC2)cc(C)n1 (stereo not shown) [CC_H-142, 3-[[(2-Chlorophenyl)-methyl-carbamoyl]amino]-N-[1-(2,6-dimethyl-pyridin-4-yl)-piperidin-4-yl]-N-methyl-2,3-dihydro-1H-indene-5-carboxylic acid amide]",100
14,"CN(C(=O)c1ccc2c(c1)CCC2NS(=O)(=O)c1c(Cl)cccc1C(F)(F)F)C1CCN(c2ccncc2)CC1 (stereo not shown) [CC_H-143, 1-[[[2-Chloro-6-(trifluoromethyl)-phenyl]sulfonyl]amino]-N-methyl-N-(1-pyridin-4-yl-piperidin-4-yl)-2,3-dihydro-1H-indene-5-carboxylic acid amide]",100

# Same assay, conditions: CHO-K1, read-out: % inhibition (human B1R) at 10 μM
row,Compound,inhibition at 10 µM [%]
1,"Cc1cc(N2CCC(N(C)C(=O)c3ccc4c(c3)[C@H](N(C(=O)c3ccccc3C)C(C)C)CC4)CC2)nc(C)n1 [Example H-172, (3R)-N-[1-(2,6-Dimethyl-pyrimidin-4-yl)-piperidin-4-yl]-3-[isopropyl-(2-methyl-benzoyl)-amino]-N-methyl-2,3-dihydro-1H-indene-5-carboxylic acid amide]",65
2,"CCN(C(=O)c1cccnc1C(F)(F)F)[C@@H]1CCc2ccc(C(=O)N(C)C3CCN(c4cc(C)nc(C)n4)CC3)cc21 [Example H-174, N-[(1R)-6-[[1-(2,6-Dimethyl-pyrimidin-4-yl)-piperidin-4-yl]-methyl-carbamoyl]-2,3-dihydro-1H-inden-1-yl]-N-ethyl-2-(trifluoromethyl)-pyridine-3-carboxylic acid amide]",100
3,"Cc1cc(N2CCC(N(C)C(=O)c3ccc4c(c3)[C@H](N(C)C(=O)c3c(F)cccc3Cl)CC4)CC2)nc(C)n1 [Example H-175, (3R)-3-[(2-Chloro-6-fluoro-benzoyl)-methyl-amino]-N-[1-(2,6 dimethyl-pyrimidin-4-yl)-piperidin-4-yl]-N-methyl-2,3-dihydro-1H-indene-5-carboxylic acid amide]",97
4,CCN(C(=O)c1c(F)cccc1Cl)[C@@H]1CCc2ccc(C(=O)N(C)C3CCN(c4cc(C)nc(C)n4)CC3)cc21 [Example H-176],97
5,"CN(C(=O)c1ccc2c(c1)[C@H](N(C)C(=O)CCC1CCCC1)CC2)C1CCN(c2ccncc2F)CC1 [Example H-188, (3R)-3-(3-Cyclopentyl-propanoyl-methyl-amino)-N-[1-(3-fluoro-pyridin-4-yl)-piperidin-4-yl]-N-methyl-2,3-dihydro-1H-indene-5-carboxylic acid amide]",100
6,"Cc1cc(N2CCC(N(C)C(=O)c3ccc4c(c3)[C@H](NS(=O)(=O)CC(C)C)CC4)CC2)nc(C)n1 [Example H-191, (3R)-N-[1-(2,6-Dimethyl-pyrimidin-4-yl)-piperidin-4-yl]-N-methyl-3-[(2-methyl-propylsulfonyl)amino]-2,3-dihydro-1H-indene-5-carboxylic acid amide]",100
7,"Cc1cc(N2CCC(N(C)C(=O)c3ccc4c(c3)[C@H](N(C)C(=O)c3cccc(F)c3Cl)CC4)CC2)nc(C)n1 [Example H-195, (3R)-3-[(2-Chloro-3-fluoro-benzoyl)-methyl-amino]-N-[1-(2,6 dimethyl-pyrimidin-4-yl)-piperidin-4-yl]-N-methyl-2,3-dihydro-1H-indene-5-carboxylic acid amide]",100
8,"Cc1cc(N2CCC(N(C)C(=O)c3ccc4c(c3)[C@H](N(C(=O)c3cccc(F)c3Cl)C(C)C)CC4)CC2)nc(C)n1 [Example H-196, (3R)-3-[(2-Chloro-3-fluoro-benzoyl)-isopropyl-amino]-N-[1-(2,6-dimethyl-pyrimidin-4-yl)-piperidin-4-yl]-N-methyl-2,3-dihydro-1H-indene-5-carboxylic acid amide]",98
9,"CCN(C(=O)c1cccc(F)c1Cl)[C@@H]1CCc2ccc(C(=O)N(C)C3CCN(c4cc(C)nc(C)n4)CC3)cc21 [Example H-197, (3R)-3-[(2-Chloro-3-fluoro-benzoyl)-ethyl-amino]-N-[1-(2,6-dimethyl-pyrimidin-4-yl)-piperidin-4-yl]-N-meihyl-2,3-dihydro-1H-indene-5-carboxylic acid amide]",100
10,"Cc1cc(N2CCC(N(C)C(=O)c3cc4c(cc3F)CC[C@H]4N(C(=O)c3ccc(F)cc3Cl)C(C)C)CC2)nc(C)n1 [Example H-198, (3R)-3-[(2-Chloro-4-fluoro-benzoyl)-isopropyl-amino]-N-[1-(2,6-dimethyl-pyrimidin-4-yl)-piperidin-4-yl]-6-fluoro-N-methyl-2,3-dihydro-1H-indene-5-carboxylic acid amide]",76
11,"Cc1cc(N2CCC(N(C)C(=O)c3ccc4c(c3)[C@H](N(C(=O)c3ccc(F)cc3Cl)C(C)C)CC4)CC2)nc(C)n1 [Example H-199, (3R)-3-[(2-Chloro-4-fluoro-benzobenzoyl)-isopropyl-amino]-N-[1-(2,6-dimethyl-pyrimidin-4-yl)-piperidin-4-yl]-N-methyl-2,3-dihydro-1H-indene-5-carboxylic acid amide]",94
